Measured values taken from patent US20180284132A1, “KITS FOR STRATIFYING SCOLIOTIC SUBJECTS” (CHU SAINTE-JUSTINE, priority 2013, published 2018).

Columns and labels:
[1] = tested on: response to Gi stimulation; experiment: Effect of serine/threonine kinase inhibitors on response to Gi stimulation in osteoblasts (CDS); format: cell-based, human; settings: inhibitor 5 μM, 1 hour before agonist
Protocol: FIG. 13A-FIG. 13B show the effect of various serine/threonine kinase inhibitors on response to Gi stimulation in osteoblasts from control and AIS functional groups. Cells were treated with Protein kinase A (PKA) inhibitor H89 (5 μM), Protein kinase C (PKC) inhibitor Gö6983 (5 μM), Ca^2+/calmodulin-dependent protein kinase (CaMK) (1,2,4) inhibitor STO-609 acetate (5 μM), Ca^2+/calmodulin-dependent protein kinase II (CaMK-2) inhibitor KN93 (5 μM), Casein kinase 1 (CK1) inhibitor D4476 (5 μM) or vehicle for 1 hour prior to stimulation with (FIG. 13A) LPA (10^−6 M) or (FIG. 13B) Somatostatin (10^−6 M). Response to Gi stimulation was measured by CDS. Data were normalised to response in osteoblasts treated with vehicle (% response in presence of vehicle shown on the y-axis and measured by CDS), and are expressed as mean±SE, of n=12 patients in each functional group. * P<0.05, **P<0.01, ***P<0.001, vs control group.
(§1) The functionality of Gi, Gs and Gq proteins was evaluated by CDS assay in osteoblasts, and the functionality of Gi was also evaluated by CDS assay in myoblasts and PBMCs from the same individuals, using CellKey™ apparatus, as previously described (Akoume et al., 2010 and WO 2010/040234, 2010 to Moreau et al.).
In order to identify putative serine/threonine kinases phosphorylating Gi isoforms in AIS, control and AIS osteoblasts were treated with a panel of serine/threonine kinase inhibitors prior to their stimulation with two distinct agonists (LPA and somatostatin). Of note, Gi stimulation induced via LPA or somatostatin receptor activation by their agonists in control osteoblasts was not affected by any kinase inhibitor (FIG. 13A-FIG. 13B). […] Cellular response in FG3 osteoblasts was not improved by inhibition of neither of PKC nor CaMK.

melatonin receptor [2] = experiment: Cellular response of osteoblasts to melatonin receptor agonists, cellular dielectric spectroscopy (CDS); format: cell-based, human; settings: for order of agonist potency: response at maximum concentration (10 μM), osteoblasts of control and AIS groups
Protocol: (§2) Data were normalised to maximal response (% maximal response) in cells from control subjects. […] The impedance represented in y-axis as dZiec, indicates the resistance (ohms) of the cells toward the electric current applied by the Cellkey™ apparatus and represents the integrated cellular response. […] Cellular responses shown on the y-axis in (FIG. 3A) to (FIG. 3E) were measured by CDS.
Osteoblasts were isolated from bone specimens obtained intraoperatively from vertebras (varying from T3 to L4 according to the surgical procedure performed) and from other anatomical sites (tibia or femur) in AIS patients and trauma control cases, respectively as previously described (Moreau et al., 2004).
as §1
The response produced with their maximum concentration (10 μM) in osteoblasts from control subjects and AIS patients of each functional group was compared.

beta-adrenergic receptor = experiment: Functional status of Gs protein in osteoblasts, isoproterenol challenge (CDS); format: cell-based, human
Protocol: as §1

[3] = tested on: response to Gi stimulation; experiment: Effect of Gi and Gs siRNA on response to Gi stimulation in osteoblasts (CDS); format: cell-based, human
Protocol: FIG. 12A-FIG. 12H show the differential effects of Gi and Gs siRNA on response to Gi stimulation in AIS functional groups. Osteoblasts from (FIG. 12A) control subjects, (FIG. 12B) FG3, (FIG. 12C) FG2; and (FIG. 12D) FG1 were transfected with Gi1, Gi2, Gi3 or Gs siRNA alone or in combination, or with scrambled siRNA, as indicated in Example 1—Materials and Methods. Efficiency of siRNA was verified with qPCR in each functional group (FIG. 12E to FIG. 12H) 48 hours after transfection, and response to Gi stimulation was measured by CDS and evaluated by challenging cells with Apelin-17, LPA or Somatostatin. Results from a single representative subject for each group are presented. Data were normalised to response in cells transfected with scrambled siRNA (% response shown on the y-axis and measured by CDS), and are expressed as mean±SE, of n=6 patients in each functional group. * P<0.05, **P<0.01, ***P<0.001, vs. control group.
as §1
All Gi1, Gi2, Gi3, Gs and scrambled siRNA were obtained from Ambion (Ambion USA). Osteoblasts from control subjects and AIS patients were transiently transfected in serum-free medium, using Lipofectamine RNAiMAX™ reagent (Invitrogen) according to the manufacturer's instructions and functional experiments were performed 48 h post transfection. The gene knockdown was evaluated by quantitative real-time PCR (qPCR).
Silencing of each gene reduced by 75-85% the expression of the corresponding mRNA in osteoblasts from control and the three AIS groups (FIGS. 12E-H). […] The response to each tested agonist was reduced by at least 75% by silencing Gi3 alone in FG2 osteoblasts (FIG. 12C), and by 90% by silencing Gi1 alone in FG3 osteoblasts ([…]) confirming that the residual response to Gi stimulation is mediated by Gi3 and Gi1 isoforms in FG2 and FG3 groups, respectively. In FG1 osteoblasts, response to each agonist was reduced by 50% following the depletion of all Gi isoforms by siRNA, and was not affected by the knockdown of individual Gi isoforms ([…]).

Gi proteins = experiment: Inhibition by GPAnt-2 or pertussis toxin of osteoblast response to Gi-coupled receptor agonists (CDS); format: cell-based, human; settings: for effect on cellular response to melatonin: 16 hours
Protocol: as §2, §1

melatonin receptor [4] = settings: normal osteoblasts; CDS (Akoume et al., 2010); cited from earlier work

For `NC(=O)c1ccc(-c2nc(-c3ccc4c(c3)OCCO4)c(-c3ccccn3)[nH]2)cc1` [D4476], the “effect on response to Gi stimulation via LPA or somatostatin” value ([1]; FG1 osteoblasts) was “increased response” and the “effect on response to Gi stimulation via LPA or somatostatin” value ([1]; FG3 osteoblasts) was “increased response”.

With `COc1ccc(S(=O)(=O)N(CCO)c2ccccc2CN(C)C/C=C/c2ccc(Cl)cc2)cc1` [KN93] the “effect on response to Gi stimulation via LPA or somatostatin” value ([1]; FG1 osteoblasts) was “unaffected”, the “effect on response to Gi stimulation via LPA or somatostatin” value ([1]; FG2 osteoblasts) was “increased the signalling response” and the “effect on response to Gi stimulation via LPA or somatostatin” value ([1]; FG3 osteoblasts) was “not improved”.

With `COc1ccc2[nH]c(-c3ccccc3)c(CCNC(C)=O)c2c1` [phenylmelatonin] the “order of agonist potency” value (melatonin receptor [2]) was “phenylmelatonin>iodomelatonin>melatonin”.

In the case of `CC(C)NCC(O)c1ccc(O)c(O)c1` (stereo not shown) [isoproterenol], the “cellular response, AIS osteoblasts vs control osteoblasts” value (beta-adrenergic receptor) is reported as “significantly enhanced”.

With “Gi2 siRNA: siRNA from Ambion, GAGGACCUGAAUAAGCGCAAAGACA (SEQ ID NO: 98)” the “reduction of response to each tested agonist” value (from here on “reduction of response”) ([3]; control group osteoblasts) was “not significantly affected”.

In the case of pertussis toxin [PTX], the “effect on cellular response to melatonin” value (Gi proteins; FG1 osteoblasts, maximal concentration) is reported as “enhanced the response to melatonin”, the “effect on cellular response to melatonin” value (Gi proteins; FG2 and FG3 osteoblasts, increasing concentration) is reported as “reduced the cellular response to melatonin” and the “effect on response to mastoparan” value (Gi proteins; high concentrations, all AIS and control groups) is reported as “almost abolished”. The inhibition curve patterns (Gi proteins; response to any of the five synthetic agonists, osteoblasts (GPAnt-2 4 h, PTX 16 h)) was “curve patterns similar to those obtained with melatonin”.

In the case of “Gs siRNA: siRNA from Ambion, ACAACAUGGUCAUCCGGGAGGACAA (SEQ ID NO: 100)”, the “reduction of response” value ([3]; FG1 osteoblasts) is reported as 50%, the “reduction of response” value ([3]; FG2 osteoblasts) is reported as “devoid of effect” and the “reduction of response” value ([3]; FG3 osteoblasts) is reported as “devoid of effect”. For the same compound, the “reduction of response” value ([3]; control group osteoblasts) was “devoid of effect”.

For `O=S(=O)(NCCNC/C=C/c1ccc(Br)cc1)c1cccc2cnccc12` [H89], the “effect on response to Gi stimulation via LPA or somatostatin” value ([1]; FG1 osteoblasts) was “increased the signalling response”, the “effect on response to Gi stimulation via LPA or somatostatin” value ([1]; FG2 osteoblasts) was “increased the signalling response” and the “effect on response to Gi stimulation via LPA or somatostatin” value ([1]; FG3 osteoblasts) was “increased the signalling response”.

With `COc1ccc2c(c1)c(C1=C(c3c[nH]c4ccccc34)C(=O)NC1=O)cn2CCCN(C)C` [Gö8963, Gö6983] the “effect on response to Gi stimulation via LPA or somatostatin” value ([1]; FG1 osteoblasts) was “significantly increased”, the “effect on response to Gi stimulation via LPA or somatostatin” value ([1]; FG2 osteoblasts) was “devoid of significant effect” and the “effect on response to Gi stimulation via LPA or somatostatin” value ([1]; FG3 osteoblasts) was “not improved”.

In the case of `COc1ccc2[nH]cc(CCNC(C)=O)c2c1` [melatonin], the “concentration at which the response reaches a plateau” value (melatonin receptor [2]; osteoblasts, all control and AIS groups) is reported as 1 µM, the “cellular response to melatonin” value (melatonin receptor [2]; osteoblasts, all control and AIS groups, CDS) is reported as “concentration-dependent increase of response” and the “order of magnitude of the maximum response from highest to lowest” value (melatonin receptor [2]; osteoblasts, control vs AIS functional groups) is reported as “control group, FG3, FG2 and FG1”. For the same compound, the “order of agonist potency” value (melatonin receptor [2]) was “phenylmelatonin>iodomelatonin>melatonin” and the “G protein dependence of cellular response to melatonin receptor stimulation” value (melatonin receptor [4]) was “mainly Gi-dependent in normal osteoblasts”.

In the case of STO-609 acetate, the “effect on response to Gi stimulation via LPA or somatostatin” value ([1]; FG1 osteoblasts) is reported as “significantly increased”, the “effect on response to Gi stimulation via LPA or somatostatin” value ([1]; FG2 osteoblasts) is reported as “increased the signalling response” and the “effect on response to Gi stimulation via LPA or somatostatin” value ([1]; FG3 osteoblasts) is reported as “not improved”.

In the case of `COc1ccc2[nH]c(I)c(CCNC(C)=O)c2c1` [iodomelatonin], the “order of agonist potency” value (melatonin receptor [2]) is reported as “phenylmelatonin>iodomelatonin>melatonin”.
